Results on 7 molecules are retold here after ChEMBL document CHEMBL1949621, “Fluorocyclines. 1. 7-fluoro-9-pyrrolidinoacetamido-6-demethyl-6-deoxytetracycline: a potent, broad spectrum antibacterial agent” (J Med Chem, 2012).

Common to all, as to format: functional
Experiment [1] relates to Staphylococcus aureus. Put plainly: Antibacterial activity against tetracycline- and methicillin-resistant Staphylococcus aureus 161.
The test system of experiment [2] is Escherichia coli. Kind of experiment: Antibacterial activity against tetracycline-resistant Escherichia coli 155.
The subject of experiment [3] is Enterobacter cloacae. Put plainly: Antibacterial activity against Enterobacter cloacae ATCC 108 13047.
Experiment [4] concerns Staphylococcus aureus. Kind of experiment: microbe, parasite or virus in culture. The note with it: 158.
Experiment [5] has as its system Streptococcus pneumoniae. Kind of experiment: microbe, parasite or virus in culture. The note with it: ATCC 106 49619.
Description: Antibacterial activity against Streptococcus pneumoniae ATCC 106 49619
For experiment [6], the system named is Pseudomonas aeruginosa. Put plainly: Antibacterial activity against Pseudomonas aeruginosa ATCC 111 27853.
Experiment [7] deals with Klebsiella pneumoniae. Kind of experiment: Antibacterial activity against Klebsiella pneumoniae ATCC 109 13883.
Experiment [8] concerns Staphylococcus aureus. Kind of experiment: Antibacterial activity against Staphylococcus aureus ATCC 101 29213.
Experiment [9] has as its system Acinetobacter baumannii. Kind of experiment: Antibacterial activity against Acinetobacter baumannii ATCC 19606 110.
Experiment [10] concerns Klebsiella pneumoniae. Put plainly: Antibacterial activity against tetracycline-resistant Klebsiella pneumoniae 153.
Experiment [11] has as its system Enterococcus faecalis. Kind of experiment: Antibacterial activity against tetracycline-resistant Enterococcus faecalis 159.
In experiment [12] the test system is Escherichia coli. Kind of experiment: Antibacterial activity against Escherichia coli ATCC 107 25922.
Experiment [13] deals with Streptococcus pneumoniae. Put plainly: Antibacterial activity against tetracycline-resistant Streptococcus pneumoniae 160.
Experiment [14] concerns Enterococcus faecalis. Kind of experiment: Antibacterial activity against Enterococcus faecalis ATCC 103 29212.

Values after ≈ are worked out from the molar mass of the structure shown.

Turning to `CN(C)[C@@H]1C(O)=C(C(N)=O)C(=O)[C@@]2(O)C(O)=C3C(=O)c4c(O)c(NC(=O)CN5CC[C@@H](O)C5)cc(F)c4C[C@H]3C[C@@H]12`, the MIC is 2 µg/mL (≈ 3.48 µM) in experiment [1]; > 32 µg/mL in experiment [2]; 16 µg/mL (≈ 27.8 µM) in experiment [3]; 16 µg/mL (≈ 27.8 µM) in experiment [4]; 0.25 µg/mL (≈ 0.435 µM) in experiment [5]; > 32 µg/mL in [6]. Further, the MIC in experiment [7] was 16 µg/mL (≈ 27.8 µM); in [8], 2 µg/mL (≈ 3.48 µM); in [9] it was 32 µg/mL (≈ 55.7 µM); in [10], > 32 µg/mL; in [11] it was 2 µg/mL (≈ 3.48 µM); in experiment [12] it was 4 µg/mL (≈ 6.96 µM). In addition, the MIC in experiment [13] was 0.5 µg/mL (≈ 0.87 µM); in experiment [14], 2 µg/mL (≈ 3.48 µM).
`COCCNCC(=O)Nc1cc(F)c2c(c1O)C(=O)C1=C(O)[C@]3(O)C(=O)C(C(N)=O)=C(O)[C@@H](N(C)C)[C@@H]3C[C@@H]1C2`: the MIC in experiment [1] is 0.5 µg/mL (≈ 0.889 µM); in [2], 16 µg/mL (≈ 28.4 µM); in experiment [3], 4 µg/mL (≈ 7.11 µM); in experiment [4] it was 4 µg/mL (≈ 7.11 µM); in experiment [5], 0.0156 µg/mL (≈ 0.0277 µM); in experiment [6] it was 16 µg/mL (≈ 28.4 µM). In addition, the MIC in [7] came out at 2 µg/mL (≈ 3.56 µM); in [8] it was 0.25 µg/mL (≈ 0.444 µM); in experiment [9] it was 2 µg/mL (≈ 3.56 µM); in [10], 8 µg/mL (≈ 14.2 µM); in experiment [11], 1 µg/mL (≈ 1.78 µM); in experiment [12], 1 µg/mL (≈ 1.78 µM). Besides, the MIC in [13] came out at 0.0625 µg/mL (≈ 0.111 µM); in experiment [14], 0.125 µg/mL (≈ 0.222 µM).
With `CN(C)[C@@H]1C(O)=C(C(N)=O)C(=O)[C@@]2(O)C(O)=C3C(=O)c4c(O)c(NC(=O)CNc5ccccc5)cc(F)c4C[C@H]3C[C@@H]12`, the MIC in [1] is 4 µg/mL (≈ 6.89 µM); in [2], > 32 µg/mL; in experiment [3] it was > 32 µg/mL; in [4], 2 µg/mL (≈ 3.44 µM); in experiment [5] it was 2 µg/mL (≈ 3.44 µM); in experiment [6] it was > 32 µg/mL. Also, the MIC in [7] is > 32 µg/mL; in [8] it was 2 µg/mL (≈ 3.44 µM); in experiment [9] it was > 8 µg/mL; in experiment [10] it was > 32 µg/mL; in experiment [11] it was 2 µg/mL (≈ 3.44 µM); in experiment [12] it was > 32 µg/mL. For the same molecule, the MIC in experiment [13] was > 4 µg/mL; in experiment [14], 2 µg/mL (≈ 3.44 µM).
Regarding `CCNCC(=O)Nc1cc(F)c2c(c1O)C(=O)C1=C(O)[C@]3(O)C(=O)C(C(N)=O)=C(O)[C@@H](N(C)C)[C@@H]3C[C@@H]1C2`, the MIC is 0.25 µg/mL (≈ 0.469 µM) in experiment [1]; 16 µg/mL (≈ 30 µM) in [2]; 0.5 µg/mL (≈ 0.939 µM) in experiment [3]; 1 µg/mL (≈ 1.88 µM) in [4]; 0.0156 µg/mL (≈ 0.0293 µM) in [5]; 8 µg/mL (≈ 15 µM) in [6]. Also, the MIC in experiment [7] amounted to 1 µg/mL (≈ 1.88 µM); in experiment [8] it was 0.0625 µg/mL (≈ 0.117 µM); in [9], 2 µg/mL (≈ 3.76 µM); in [10], 8 µg/mL (≈ 15 µM); in [11], 0.125 µg/mL (≈ 0.235 µM); in experiment [12] it was 0.25 µg/mL (≈ 0.469 µM). Also, the MIC in experiment [13] was 0.0156 µg/mL (≈ 0.0293 µM); in experiment [14] it was 0.0625 µg/mL (≈ 0.117 µM).
Consider `CN(C)[C@@H]1C(O)=C(C(N)=O)C(=O)[C@@]2(O)C(O)=C3C(=O)c4c(O)c(NC(=O)CN5CCCCC5)cc(F)c4C[C@H]3C[C@@H]12`, for which the MIC in experiment [1] was 1 µg/mL (≈ 1.75 µM); in [2], 4 µg/mL (≈ 6.99 µM); in experiment [3], 4 µg/mL (≈ 6.99 µM); in [4] it was 0.5 µg/mL (≈ 0.873 µM); in experiment [5], 0.0156 µg/mL (≈ 0.0272 µM); in experiment [6], 32 µg/mL (≈ 55.9 µM). The MIC was 2 µg/mL (≈ 3.49 µM) in [7]; 0.5 µg/mL (≈ 0.873 µM) in [8]; 0.125 µg/mL (≈ 0.218 µM) in experiment [9]; 4 µg/mL (≈ 6.99 µM) in experiment [10]; 0.5 µg/mL (≈ 0.873 µM) in experiment [11]; 1 µg/mL (≈ 1.75 µM) in experiment [12]. For the same molecule, the MIC in experiment [13] turned out to be 0.0156 µg/mL (≈ 0.0272 µM); in experiment [14] it was 0.25 µg/mL (≈ 0.437 µM).
For the molecule `COC[C@@H]1CCCN1CC(=O)Nc1cc(F)c2c(c1O)C(=O)C1=C(O)[C@]3(O)C(=O)C(C(N)=O)=C(O)[C@@H](N(C)C)[C@@H]3C[C@@H]1C2`, the MIC in [1] is 2 µg/mL (≈ 3.32 µM); in experiment [2], 16 µg/mL (≈ 26.6 µM); in experiment [3] it was 16 µg/mL (≈ 26.6 µM); in experiment [4], 1 µg/mL (≈ 1.66 µM); in [5], 0.125 µg/mL (≈ 0.207 µM); in experiment [6], > 32 µg/mL. Moreover, the MIC in experiment [7] is 8 µg/mL (≈ 13.3 µM); in experiment [8] it was 1 µg/mL (≈ 1.66 µM); in experiment [9], 0.5 µg/mL (≈ 0.83 µM); in experiment [10], 16 µg/mL (≈ 26.6 µM); in experiment [11], 2 µg/mL (≈ 3.32 µM); in experiment [12], 4 µg/mL (≈ 6.64 µM). The results for the MIC in [13] and in experiment [14] were 0.125 µg/mL (≈ 0.207 µM) and 1 µg/mL (≈ 1.66 µM), respectively.
As for `CN(C)[C@@H]1CCN(CC(=O)Nc2cc(F)c3c(c2O)C(=O)C2=C(O)[C@]4(O)C(=O)C(C(N)=O)=C(O)[C@@H](N(C)C)[C@@H]4C[C@@H]2C3)C1`, the MIC was > 32 µg/mL in experiment [1]; > 32 µg/mL in [2]; > 32 µg/mL in [3]; > 32 µg/mL in experiment [4]; 2 µg/mL (≈ 3.32 µM) in experiment [5]; > 32 µg/mL in experiment [6]. The MIC in experiment [7] is > 32 µg/mL; in experiment [8], 8 µg/mL (≈ 13.3 µM); in experiment [9] it was > 32 µg/mL; in experiment [10], > 32 µg/mL; in experiment [11], 16 µg/mL (≈ 26.6 µM); in experiment [12] it was > 32 µg/mL. Moreover, the MIC was 4 µg/mL (≈ 6.65 µM) in experiment [13] and 16 µg/mL (≈ 26.6 µM) in experiment [14].
